Like-named read-outs stand apart in the source and are kept apart here.
What was measured:
[1] = test system: THP-1. ORF9b cells; assay type: cell-based; settings: 10 ng/mL interferon-β1 4 h, inhibitor 1 µM 1 h
[2] = test system: A549.ORF9b; assay type: cell-based; settings: A549.ORF9b cells; 10 ng/mL interferon-β1 4 h, inhibitor 1 µM 1 h
[3] = biological target: T1, Recombinant SARS-CoV-2 GST-ORF9b protein (Severe acute respiratory syndrome coronavirus 2, UniProt P0DTD2); assay: Surface plasmon resonance, ORF9b-ORF9b homotypic interaction; assay type: binding; settings: mobile-phase GST-ORF9b pre-incubated with 5 µM compound
T1 construct: purchased BPS Bioscience

[4] = test system: A549.ORF9b cells; assay type: cell-based
[5] = physchem
[6] = test system: THP-1.ORF9b cells; assay type: cell-based
[7] = test system: A549.ORF9b cells; assay: Fluorescence microscopy, co-localization of ORF9b and mitochondria; assay type: cell-based
[8] = test system: A549wt cells; assay type: cell-based; settings: both without and with LPS+ATP, MCC950 for the last 3 h
[9] = A549 lung epithelial cells, low micromolar concentrations (Fig. 9A)
[10] = THP-1 monocyte-macrophage cells, low micromolar concentrations (Fig. 9B)

T1 sequence (P0DTD2 whole entry): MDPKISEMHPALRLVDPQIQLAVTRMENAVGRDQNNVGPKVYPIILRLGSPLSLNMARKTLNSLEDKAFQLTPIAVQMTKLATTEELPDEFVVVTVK

Row | SMILES | restoration of IFN-β induced expression of OAS3 and ISG15 mitigated by ORF9b [1] | restoration of IFN-β induced expression of OAS3 and ISG15 mitigated by ORF9b [2] | Binding of GST-ORF9b to immobilized GST-ORF9b [3] | inhibition of ORF9b-induced caspase-1 activation ([4]; A549.ORF9b cells) | inhibition of the activation of caspase-1 induced by ORF9b ([4]; A549.ORF9b cells, 5 µM, 3 h (Fig. 6)) | logP [5] | inhibition of ORF9b-induced caspase-1 activation ([6]; THP-1.ORF9b cells) | inhibition of the activation of caspase-1 induced by ORF9b ([6]; THP-1.ORF9b cells, 5 µM, 3 h (Fig. 7)) | mitochondrial eviction of ORF9b ([7]; 2.5 µM, 4 h (Fig. 8)) | mitochondrial eviction of ORF9b ([7]; low micromolar concentrations) | inhibition of the activation of caspase-1 induced by ORF9b [4, 9] | inhibition of the activation of caspase-1 induced by ORF9b [6, 10] | mitochondrial eviction of ORF9b ([7]; 5 µM, 4 h (Fig. 11)) | induction of caspase-1 activation by SARS-CoV-2 accessory proteins [8]
1 | Nc1ccc(F)c(NC(=O)Cc2ccccc2)c1 [Compound 1] | largely restored | largely restored | significantly inhibited | significantly inhibited | inhibits | 2.14 | significantly inhibited | inhibits | causes mitochondrial eviction | rapid and remarkable partial eviction |  |  |  | 
2 | Nc1ccc(F)c(NC(=O)c2cccc3ccccc23)c1 [Compound 2, N-(5-Amino-2-fluorophenyl)-1-naphthamide] | largely restored | largely restored |  | inhibited |  | 3.19 | inhibited |  |  | capable of causing mitochondrial eviction | inhibit | inhibit | induce mitochondrial eviction | 
3 | Cc1ccc(N)c(NC(=O)Cc2ccc(F)cc2)c1 [Compound 3, N-(2-Amino-5-methylphenyl)-2-(4-fluorophenyl)acetamide] |  |  |  | much lower or no |  | 2.63 | much lower or no |  |  | did not cause mitochondrial eviction |  |  |  | 
4 | COc1ccc(CC(=O)Nc2cc(N)ccc2F)cc1 [Compound 4, N-(5-Amino-2-fluorophenyl)-2-(4-methoxyphenyl)acetamide] |  |  |  | inhibited |  | 2.01 | inhibited |  |  |  | inhibit | inhibit |  | 
5 | Nc1ccc(F)c(NC(=O)Cc2ccc(Cl)cc2)c1 [Compound 5, N-(5-Amino-2-fluorophenyl)-2-(4-chlorophenyl)acetamide] |  |  |  | inhibited |  | 2.7 | inhibited |  |  |  | inhibit | inhibit |  | 
6 | O=C(Cc1ccc(Cl)cc1)Nc1cc([N+](=O)[O-])ccc1F [Compound 6, 2-(4-Chlorophenyl)-N-(2-fluoro-5-nitrophenyl)acetamide] | largely restored | largely restored |  | inhibited |  | 3.47 | inhibited |  |  | capable of causing mitochondrial eviction | inhibit | inhibit | induce mitochondrial eviction | 
7 | COc1ccc(CC(=O)Nc2cc([N+](=O)[O-])ccc2F)cc1 [Compound 7, N-(2-Fluoro-5-nitrophenyl)-2-(4-methoxyphenyl)acetamide] |  |  |  | inhibited |  | 2.98 | inhibited |  |  |  | inhibit | inhibit |  | 
8 | Cc1ccc([N+](=O)[O-])c(NC(=O)Cc2ccc(F)cc2)c1 [Compound 8, N-(2-Nitro-5-methylphenyl)-2-(4-fluorophenyl)acetamide] |  |  |  | much lower or no |  | 3.27 | much lower or no |  |  | did not cause mitochondrial eviction |  |  |  | 
9 | O=C(Cc1ccccc1)Nc1cc([N+](=O)[O-])ccc1F [Compound 9, N-(2-Fluoro-5-nitrophenyl)-2-phenylacetamide] |  |  |  |  |  | 2.85 |  |  |  |  |  |  |  | 
10 | CC(C)(O)c1coc(S(=O)(=O)NC(=O)Nc2c3c(cc4c2CCC4)CCC3)c1 [MCC950, reference compound] |  |  |  |  |  |  |  |  |  |  |  |  |  | abolished

— EP4603477A1, “INHIBITORS OF THE CORONAVIRUS ACCESSORY PROTEIN ORF9B” (Consejo Superior De Investigaciones Científicas, priority 2024, dated 2025)
